Source: US20090048117A1, “MODULATION OF IMMUNE SYSTEM FUNCTION BY MODULATION OF POLYPEPTIDE ARGININE METHYLTRANSFERASES” (President and Fellows of Harvard College, priority 2003, published 2009)

Key:
[1] = test system: NFAT4; experiment: Nuclear translocation of NFAT4 by immunofluorescence in HepG2 cells; format: cell-based; set-up: key: Subcellular localization of NFAT4 in the cytoplasm is indicated by a (−); nuclear translocation of NFAT4 is indicated by (^+); details: 1 μM ionomycin
Procedure: The effect of NIP45 on the nuclear translocation of NFAT4 also was investigated. HepG2 cells were transfected with either NFAT4 or NFAT4 plus NIP45 and stimulated the following day with 1 μM ionomycin for 0, 2, 4, 8 or 15 minutes. For one sample, the cells were stimulated for 15 minutes with ionomycin and then washed with fresh media and allowed to rest for an additional 15 minutes (indicated as “15 min.^+15 min. rest” in Table 1). This analysis is designed to examine the function of NIP45 as a nuclear retention factor. […] All samples were then fixed and analyzed by immunofluorescence for translocation of NFAT4 as described above. Subcellular localization of NFAT4 in the cytoplasm is indicated by a (−) and nuclear translocation of NFAT4 is indicated by (^+).

[2] = test system: NFAT reporter element; experiment: NFAT consensus site luciferase reporter assay in Jurkat cells; format: cell-based, human; details: PRMT1 with NFATc2
Procedure: FIGS. 13A-13D depict the regulation of the IFNγ and IL-4 promoters by PRMT1. (A) Jurkat cells were transfected with the 9.2 kb IFNγ luciferase reporter 5 μg) and expression vectors for T-bet (5 μg) and PRMT1 (10 μg). Cells were unstimulated or stimulated with PMA/ionomycin for 6 hrs prior to luciferase assays. (B) Jurkat cells were transfected with the IL-4 luciferase reporter (2.5 μg) and expression vectors for NFATc2 (2.5 μg), c-Maf (2.5 μg), and PRMT1 (10 μg). Cells were treated as in (A). (C) Jurkat cells were transfected with the IL-4 luciferase reporter (2.5 μg) and expression vectors for JunB (2.5 μg), c-Maf (2.5 μg), and PRMT1 (10 μg). Cells were treated as in (A). (D) Jurkat cells were transfected with an luciferase reporter driven by NFAT consensus sites and expression vectors for NFATc2 (2.5 μg) and PRMT1 (10 μg). Cells were treated as in (A). (Luciferase units were normalized to TK-renilla luciferase activity. Results are representative to at least three independent experiments.)
The IL-4 promoter contains several composite NFAT/AP-1 sites. Whether PRMT1 coactivation is mediated through NFAT or AP-1 factors was investigated as both NFAT and JunB are involved in the regulation of IL-4 promoter activity (Li, B., et al. (1999) EMBO J 18:420-432). […]

[3] = test system: IL-4 promoter; experiment: IL-4 luciferase reporter assay in Jurkat cells; format: cell-based, human; details: PRMT1 with NFATc2 and c-Maf, PMA/ionomycin stimulation
Procedure: FIGS. 11A-11C depict the effects of MTA on T helper cytokine production. (A) T helper cells were isolated from the lymph nodes of DO11.10 TCR transgenic mice and grown under Th1 or Th2 conditions for 7 days. Th1 and Th2 cells were treated with PMA/ionomycin for 3 hrs or pretreated with 1 mM MTA for 60 min prior to PMA/ionomycin stimulation. RNA was isolated with analyzed by RNase protection analysis for transcript level of indicated cytokines. L32 and GAPDH included in the multitemplate probe set served as an internal control. (B) Cells were grown as in (A) either pretreated with 1 mM MTA or left untreated and intracellular cytokine analysis was performed after stimulation with PMA/ionomycin for 2 hrs and an additional 2 hrs with […] monensin. (C) MTA inhibits IL-4 promoter activity. Jurkat cells were transfected with IL-4 reporter vector (2.5 μg) and expression vectors for c-Maf (2.5 μg), NFATc2 (2.5 μg), and PRMT1 (10 μg) along with a TK-renilla luciferase vector (5 ng) as an internal control. Transfectants were left unstimulated or pretreated with 1 mM MTA before a 6 hr PMA/ionomycin stimulation. Luciferase values were calculated relative to TK renilla luciferase internal controls and are expressed relative to unstimulated reporter activity. Similar results were obtained in at least three independent experiments. […]

Row | Compound | Nuclear Translocation of NFAT4 ([1]; 0 min.) | Nuclear Translocation of NFAT4 ([1]; 8 min.) | Nuclear Translocation of NFAT4 ([1]; 15 min.) | Nuclear Translocation of NFAT4 ([1]; 15 min. + 15 min. rest in fresh media) | augmentation of NFATc2 transactivation of an NFAT reporter element [2] | IL-4 promoter activity over NFATc2/c-Maf only [3]
1 | C[C@H](CCC(=O)O)C[C@H](C)C[C@H](C)C(=O)/C=C(\O)[C@H](C)C[C@H](C)C/C=C/[C@@H](C)[C@@H](O)[C@@H](C)[C@@H](O)C[C@@H]1CC[C@@](C)([C@H]2CC[C@@](C)([C@@H](C)O)O2)O1 [Ionomycin, ionomycin] | − | + | + | − |  | 
2 | PRMT1: type I protein arginine methyltransferase (SEQ ID NO:10), expressed from a transfected expression vector |  |  |  |  | approximately 10 fold | 5 fold
